Assay results from ChEMBL document CHEMBL5365500, “Development and Antibacterial Properties of 4-[4-(Anilinomethyl)-3-phenylpyrazol-1-yl]benzoic Acid Derivatives as Fatty Acid Biosynthesis Inhibitors” (J Med Chem, 2023).
≈ marks a conversion by molar mass, not a printed value. Calls of active or inactive are those of the source. The calls are words filed in the database; no cut-off is given here.

Legend:
[1] = system: Staphylococcus epidermidis; assay: Antimicrobial activity against antibiotic-resistant Staphylococcus epidermidis ATCC 700296 assessed as inhibition of visible growth measured after 20 to 24 hrs incubation by CLSI method; assay type: functional; conditions: time 20-24 hrs
Staphylococcus aureus [2] = assay: Antimicrobial activity against antibiotic-resistant Staphylococcus aureus ATCC 33591 assessed as inhibition of visible growth measured after 20 to 24 hrs incubation by CLSI method; assay type: functional; conditions: time 20-24 hrs
Staphylococcus aureus [3] = assay: Antimicrobial activity against Staphylococcus aureus ATCC 25923 assessed as inhibition of visible growth measured after 20 to 24 hrs incubation by CLSI method; assay type: functional; conditions: time 20-24 hrs
Bacillus subtilis = assay: Antimicrobial activity against antibiotic-resistant Bacillus subtilis ATCC 6623 assessed as inhibition of visible growth measured after 20 to 24 hrs incubation by CLSI method; assay type: functional; conditions: time 20-24 hrs
Staphylococcus aureus [4] = assay: Antimicrobial activity against antibiotic-resistant Staphylococcus aureus ATCC 700699 assessed as inhibition of visible growth measured after 20 to 24 hrs incubation by CLSI method; assay type: functional; conditions: time 20-24 hrs
HEK293 = assay: Cytotoxicity against human HEK293 cells assessed as cell viability measured after 24 hrs by resazurin assay; assay type: toxicity, cell-based
Staphylococcus aureus [5] = assay: In vivo antimicrobial activity against Staphylococcus aureus UAMS-1 infected in Caenorhabditis elegans AU37 nematodes assessed as viability of nematodes incubated for 5 days by susceptibility test; assay type: functional; conditions: UAMS-1, 120 h, time 5 day
Enterococcus faecium = assay: Antimicrobial activity against antibiotic-resistant Enterococcus faecium ATCC 700221 assessed as inhibition of visible growth measured after 20 to 24 hrs incubation by CLSI method; assay type: functional; conditions: time 20-24 hrs
Staphylococcus aureus [6] = assay: In vivo antimicrobial activity against Staphylococcus aureus USA300 infected in Caenorhabditis elegans AU37 nematodes assessed as viability of nematodes incubated for 5 days by susceptibility test; assay type: functional; conditions: USA300, 120 h, time 5 day
Enterococcus faecalis [7] = assay: Antimicrobial activity against antibiotic-resistant Enterococcus faecalis ATCC 51299 assessed as inhibition of visible growth measured after 20 to 24 hrs incubation by CLSI method; assay type: functional; conditions: time 20-24 hrs
Staphylococcus aureus [8] = assay: Antimicrobial activity against antibiotic-resistant Staphylococcus aureus ATCC 33592 assessed as inhibition of visible growth measured after 20 to 24 hrs incubation by CLSI method; assay type: functional; conditions: time 20-24 hrs
Staphylococcus aureus [9] = assay: Antimicrobial activity against antibiotic-resistant Staphylococcus aureus ATCC BAA-2312 assessed as inhibition of visible growth measured after 20 to 24 hrs incubation by CLSI method; assay type: functional; conditions: time 20-24 hrs
Enterococcus faecalis [10] = assay: Antimicrobial activity against antibiotic-susceptible Enterococcus faecalis ATCC 29212 assessed as inhibition of visible growth measured after 20 to 24 hrs incubation by CLSI method; assay type: functional; conditions: time 20-24 hrs
Staphylococcus aureus [11] = assay: In vivo antimicrobial activity against Staphylococcus aureus Newman infected in Caenorhabditis elegans AU37 nematodes assessed as viability of nematodes incubated for 5 days by susceptibility test; assay type: functional; conditions: 120 h, time 5 day
Staphylococcus aureus [12] = assay: Antimicrobial activity against Staphylococcus aureus ATCC 25923 assessed as eradication of biofilm measured after 24 hrs incubation by Calgary method; assay type: functional
Cell membrane = assay: Induction of membrane permeability in Staphylococcus aureus ATCC 700699 assessed as increase in fluorescence intensity at 4 times of MIC incubated for 15 mins measured for 1 hr by propidium iodide/real time fluorescence based flow cytometry Rvb = 3.5); conditions: time 75.0 min
Enterococcus faecalis [13] = assay: Antimicrobial activity against antibiotic-susceptible Enterococcus faecalis ATCC 29212 assessed as eradication of biofilm measured after 24 hrs incubation by Calgary method; assay type: functional
Staphylococcus aureus [14] = assay: Antimicrobial activity against clinical isolate Staphylococcus aureus Smu81 assessed as inhibition of growth measured after 20 to 24 hrs incubation by CLSI method; assay type: functional; conditions: time 20-24 hrs
Staphylococcus aureus [15] = assay: Antimicrobial activity against clinical isolate Staphylococcus aureus Smu57 assessed as inhibition of growth measured after 20 to 24 hrs incubation by CLSI method; assay type: functional; conditions: time 20-24 hrs
Staphylococcus aureus [16] = assay: Antimicrobial activity against Staphylococcus aureus UAB159 assessed as inhibition of growth measured after 20 to 24 hrs incubation by CLSI method; assay type: functional; conditions: time 20-24 hrs
Staphylococcus aureus [17] = assay: Antimicrobial activity against clinical isolate Staphylococcus aureus Smu21 assessed as inhibition of growth measured after 20 to 24 hrs incubation by CLSI method; assay type: functional; conditions: time 20-24 hrs
Staphylococcus aureus [18] = assay: Antimicrobial activity against clinical isolate Staphylococcus aureus Smu109 assessed as inhibition of growth measured after 20 to 24 hrs incubation by CLSI method; assay type: functional; conditions: time 20-24 hrs
Staphylococcus aureus [19] = assay: Antimicrobial activity against clinical isolate Staphylococcus aureus Smu9 assessed as inhibition of growth measured after 20 to 24 hrs incubation by CLSI method; assay type: functional; conditions: time 20-24 hrs
Staphylococcus aureus [20] = assay: Antimicrobial activity against methicilline-resistant Staphylococcus aureus ATCC 700699 persisters assessed as bacterial killing at 32 time of MIC concentration measured for every 2 hrs upto 8 hrs by Persisters time course assay; assay type: functional, organism-based

SMILES	MIC [1]	MIC (Staphylococcus aureus [2])	MIC (Staphylococcus aureus [3])	MIC (Bacillus subtilis)	MIC (Staphylococcus aureus [4])	MIC (Staphylococcus aureus [5])	MIC (Enterococcus faecium)	MIC (Staphylococcus aureus [6])	MIC (Enterococcus faecalis [7])	MIC (Staphylococcus aureus [8])	MIC (Staphylococcus aureus [9])	MIC (Enterococcus faecalis [10])	MIC (Staphylococcus aureus [11])	also measured
O=C(O)c1ccc(-n2cc(CNc3ccc(Br)c(Cl)c3)c(-c3ccc(F)cc3)n2)cc1	4 µg/mL (≈ 7.99 µM)	1 µg/mL (≈ 2 µM)	1 µg/mL (≈ 2 µM)	0.5 µg/mL (≈ 0.998 µM)	2 µg/mL (≈ 3.99 µM)	2 µg/mL (≈ 3.99 µM)	4 µg/mL (≈ 7.99 µM)	2 µg/mL (≈ 3.99 µM)	8 µg/mL (≈ 16 µM)	1 µg/mL (≈ 2 µM)	1 µg/mL (≈ 2 µM)	8 µg/mL (≈ 16 µM)	1 µg/mL (≈ 2 µM)	IC50 (HEK293): 20 µg/mL (≈ 39.9 µM)
CCCCCCCCCC(=O)N[C@@H](Cc1c[nH]c2ccccc12)C(=O)N[C@H](CC(N)=O)C(=O)N[C@@H](CC(=O)O)C(=O)N[C@@H]1C(=O)NCC(=O)N[C@@H](CCCN)C(=O)N[C@@H](CC(=O)O)C(=O)N[C@H](C)C(=O)N[C@@H](CC(=O)O)C(=O)NCC(=O)N[C@H](CO)C(=O)N[C@@H]([C@H](C)CC(=O)O)C(=O)N[C@@H](CC(=O)c2ccccc2N)C(=O)O[C@@H]1C	–	–	–	–	8 µg/mL (≈ 4.94 µM)	4 µg/mL (≈ 2.47 µM)	16 µg/mL (≈ 9.87 µM)	4 µg/mL (≈ 2.47 µM)	16 µg/mL (≈ 9.87 µM)	–	–	16 µg/mL (≈ 9.87 µM)	4 µg/mL (≈ 2.47 µM)	MBEC (Staphylococcus aureus [12]): >32 µg/mL; Activity (Cell membrane): 7.02%; MBEC (Enterococcus faecalis [13]): 16 µg/mL
O=C(O)c1ccc(-n2cc(CNc3ccc(Cl)c(Cl)c3)c(-c3ccc(F)cc3)n2)cc1	4 µg/mL (≈ 8.77 µM)	0.5 µg/mL (≈ 1.1 µM)	2 µg/mL (≈ 4.38 µM)	1 µg/mL (≈ 2.19 µM)	1 µg/mL (≈ 2.19 µM)	1 µg/mL (≈ 2.19 µM)	> 32 µg/mL	1 µg/mL (≈ 2.19 µM)	> 32 µg/mL	2 µg/mL (≈ 4.38 µM)	1 µg/mL (≈ 2.19 µM)	> 32 µg/mL	1 µg/mL (≈ 2.19 µM)	–
O=C(O)c1ccc(-n2cc(CNc3cc(Cl)cc(Cl)c3)c(-c3ccc(C(F)(F)F)cc3)n2)cc1	–	–	–	–	–	–	–	–	–	–	–	–	–	MIC (Staphylococcus aureus [14]): 2 µg/mL (≈ 3.95 µM); MIC (Staphylococcus aureus [15]): 2 µg/mL (≈ 3.95 µM); MIC (Staphylococcus aureus [16]): 2 µg/mL (≈ 3.95 µM); MIC (Staphylococcus aureus [17]): 2 µg/mL (≈ 3.95 µM); MIC (Staphylococcus aureus [18]): 2 µg/mL (≈ 3.95 µM); MIC (Staphylococcus aureus [19]): 1 µg/mL (≈ 1.98 µM)
O=C(O)c1ccc(-n2cc(CNc3cc(Cl)c(F)c(Cl)c3)c(-c3ccc(C(F)(F)F)cc3)n2)cc1	–	–	–	–	–	–	–	–	–	–	–	–	–	MIC (Staphylococcus aureus [14]): 2 µg/mL (≈ 3.81 µM); MIC (Staphylococcus aureus [15]): 2 µg/mL (≈ 3.81 µM); MIC (Staphylococcus aureus [16]): 2 µg/mL (≈ 3.81 µM); MIC (Staphylococcus aureus [17]): 2 µg/mL (≈ 3.81 µM); MIC (Staphylococcus aureus [18]): 2 µg/mL (≈ 3.81 µM); MIC (Staphylococcus aureus [19]): 2 µg/mL (≈ 3.81 µM)
O=C(O)c1ccc(-n2cc(CNc3cc(Cl)c(F)c(Cl)c3)c(-c3cccc(F)c3)n2)cc1	2 µg/mL (≈ 4.22 µM)	0.5 µg/mL (≈ 1.05 µM)	1 µg/mL (≈ 2.11 µM)	1 µg/mL (≈ 2.11 µM)	2 µg/mL (≈ 4.22 µM)	1 µg/mL (≈ 2.11 µM)	4 µg/mL (≈ 8.43 µM)	1 µg/mL (≈ 2.11 µM)	4 µg/mL (≈ 8.43 µM)	1 µg/mL (≈ 2.11 µM)	0.5 µg/mL (≈ 1.05 µM)	8 µg/mL (≈ 16.9 µM)	1 µg/mL (≈ 2.11 µM)	IC50 (HEK293): 20 µg/mL (≈ 42.2 µM)
O=C(O)c1ccc(-n2cc(CNc3cc(C(F)(F)F)cc(C(F)(F)F)c3)c(-c3ccc(F)cc3)n2)cc1	4 µg/mL (≈ 7.64 µM)	0.5 µg/mL (≈ 0.955 µM)	1 µg/mL (≈ 1.91 µM)	1 µg/mL (≈ 1.91 µM)	2 µg/mL (≈ 3.82 µM)	1 µg/mL (≈ 1.91 µM)	2 µg/mL (≈ 3.82 µM)	1 µg/mL (≈ 1.91 µM)	4 µg/mL (≈ 7.64 µM)	1 µg/mL (≈ 1.91 µM)	1 µg/mL (≈ 1.91 µM)	4 µg/mL (≈ 7.64 µM)	0.5 µg/mL (≈ 0.955 µM)	–
O=C(O)c1ccc(-n2cc(CNc3cc(C(F)(F)F)cc(C(F)(F)F)c3)c(-c3cccc(F)c3)n2)cc1	4 µg/mL (≈ 7.64 µM)	1 µg/mL (≈ 1.91 µM)	2 µg/mL (≈ 3.82 µM)	1 µg/mL (≈ 1.91 µM)	2 µg/mL (≈ 3.82 µM)	–	2 µg/mL (≈ 3.82 µM)	–	2 µg/mL (≈ 3.82 µM)	1 µg/mL (≈ 1.91 µM)	1 µg/mL (≈ 1.91 µM)	4 µg/mL (≈ 7.64 µM)	–	Activity (Staphylococcus aureus [20]): Active
